Biological target: T1, His6-NALP1 NBS mutant (G339E, K340A) (Homo sapiens, UniProt Q9C000, G339E/K340A)
T1 construct: made in house; host or cells: COS-7 cells, transient transfection, Ni-NTA purification
T1 sequence (Q9C000 1-1473 G339E/K340A): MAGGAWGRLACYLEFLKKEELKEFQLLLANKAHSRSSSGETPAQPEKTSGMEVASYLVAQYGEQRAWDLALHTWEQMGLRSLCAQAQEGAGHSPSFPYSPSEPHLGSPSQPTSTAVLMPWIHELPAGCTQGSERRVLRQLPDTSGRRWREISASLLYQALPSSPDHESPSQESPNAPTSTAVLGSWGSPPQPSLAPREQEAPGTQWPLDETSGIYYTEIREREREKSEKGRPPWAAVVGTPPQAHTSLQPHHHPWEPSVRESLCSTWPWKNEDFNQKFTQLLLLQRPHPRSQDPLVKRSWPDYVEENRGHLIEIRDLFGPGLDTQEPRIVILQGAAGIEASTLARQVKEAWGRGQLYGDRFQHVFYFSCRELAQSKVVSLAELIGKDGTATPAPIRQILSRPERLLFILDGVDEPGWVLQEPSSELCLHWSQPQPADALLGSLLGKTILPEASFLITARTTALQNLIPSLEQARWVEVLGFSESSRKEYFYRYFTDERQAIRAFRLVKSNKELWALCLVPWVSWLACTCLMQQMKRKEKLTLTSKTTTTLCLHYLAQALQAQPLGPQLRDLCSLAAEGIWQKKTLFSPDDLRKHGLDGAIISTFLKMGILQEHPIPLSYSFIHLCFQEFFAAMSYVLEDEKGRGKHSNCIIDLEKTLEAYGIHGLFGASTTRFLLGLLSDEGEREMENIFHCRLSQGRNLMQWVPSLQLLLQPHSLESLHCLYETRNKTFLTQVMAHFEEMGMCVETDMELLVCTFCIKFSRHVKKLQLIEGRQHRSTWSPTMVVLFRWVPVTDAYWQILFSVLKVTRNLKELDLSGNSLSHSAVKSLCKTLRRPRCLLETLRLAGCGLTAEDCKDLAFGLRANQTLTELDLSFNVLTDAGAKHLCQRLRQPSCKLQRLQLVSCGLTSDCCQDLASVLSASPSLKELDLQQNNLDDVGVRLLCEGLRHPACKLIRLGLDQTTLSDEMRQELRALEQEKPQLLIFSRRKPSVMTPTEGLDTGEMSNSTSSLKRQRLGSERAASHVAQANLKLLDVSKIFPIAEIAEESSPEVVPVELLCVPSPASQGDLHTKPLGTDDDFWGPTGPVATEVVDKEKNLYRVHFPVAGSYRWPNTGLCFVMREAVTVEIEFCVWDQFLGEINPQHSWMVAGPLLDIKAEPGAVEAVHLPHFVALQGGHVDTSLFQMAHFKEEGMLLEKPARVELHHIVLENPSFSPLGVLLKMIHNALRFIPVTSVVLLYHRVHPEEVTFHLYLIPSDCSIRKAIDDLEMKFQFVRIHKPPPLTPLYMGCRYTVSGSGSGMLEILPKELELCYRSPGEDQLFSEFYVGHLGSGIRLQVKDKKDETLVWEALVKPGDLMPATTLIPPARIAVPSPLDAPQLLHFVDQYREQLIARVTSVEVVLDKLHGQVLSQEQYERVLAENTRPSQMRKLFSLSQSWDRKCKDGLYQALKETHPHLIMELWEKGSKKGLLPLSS
Test: Ni flashplate dATPα35S binding assay, NBS mutant His6-NALP1
Settings: 8 nM dATPα35S displaced by non-radiolabeled dATP
Protocol: Production of purified NALP-Flashplate binding assay. NALP1 protein for in vitro binding assays was purified from transiently transfected cells. COS-7 cells were plated in DMEM, 10% fetal calf serum with amino acid supplements and antibiotics and allowed to grow to approximately 50% confluency. Large-scale preparations were performed in Cell Factories (NUNC) with approximately 600 μg plasmid DNA. Polyfect transfection reagent (Qiagen) was used as described by the manufacturer. After 24 hours, cells were collected by trypsinization, washed with fresh medium and then with PBS. Cells were lysed by resuspension in 10× cell volume of lysis buffer (140 mM NaCl, 0.1% Triton-X100, 0.1 mM DTT, 20 mM HEPES at pH 7.4 and protease inhibitor cocktail (Roche Diagnostics BmbH)). Lysates were centrifuged at approximately 7400×g for 30 minutes and supernatants were supplemented with glycerol to a final concentration of 10% and stored at −70° C. until purification. Protein concentrations were measured and samples normalized. Extracts were mixed with 1 ml Ni-NTA agarose equilibrated with the same buffer for 1 hour at 4° C. in the tube. Disposable columns were filled with the resin and flow-through collected. […] Reactions were stopped by aspirating solutions and washed once with Buffer B. Plates were counted in a Top Count scintillation counter (Packard).

Question: Which “specific binding of dATP to NBS mutant NALP1” value does the source give for `Nc1ncnc2c1ncn2[C@H]1C[C@H](O)[C@@H](COP(=O)(O)OP(=O)(O)OP(=O)(O)O)O1` [dATP] here?
Answer: The value was “failed to achieve significant binding”.

Reference: patent US20040248775A1, “Methods for screening inhibitors of apoptosis” (Wyeth, priority 2003, published 2004)
